Test results reported in patent US9012497B2, “Cyclohexyl carbamate compounds as active anti-cellulite ingredients” (Symrise AG, priority 2010, dated 2015).

What was measured:
3T3-L1 cells = assay: Adipogenesis assay (in vitro), Nile Red lipid staining; assay type: cell-based; settings: Mus musculus, mean values of at least 2 independent tests, read-out: Adipogenesis inhibition IC50
Method: 3T3-L1 cells (mouse embryonic fibroblast-like adipocyte cell line) are seeded in a 48-well plate with collagen I-coating in a concentration of 3×10^4 cells/well. After 72 h cultivation at 37° C. and 5% CO2 in DMEM (Dulbecco's Modified Eagle Medium), enriched with 10% calf serum, various concentrations of the test substances in DMEM, enriched with 10% foetal calf serum and to which are added 1 μg/ml insulin, 0.25 μM dexamethasone and 0.5 mM IBMX (3-isobutyl-1-methylxanthine), are added and incubated for a further 48 h. A media change takes place, in that DMEM, enriched with 10% foetal calf serum and with 1 μg/ml insulin added, are applied. After renewed cultivation for 48 h, a further media change takes place, in which DMEM, enriched with 10% foetal calf serum, is applied.
After a further incubation for 72 h, the intracellularly stored lipids are quantified as a measure for the differentiation of the cells by measuring the fluorescence after staining of the lipids with the fluorescent dye Nile Red.
The inhibition of the adipogenesis in the presence of the test substances is calculated according to the following equation:
[formula] wherein RFU test substance=relative fluorescent units of the wells with test substance and with cells RFU control=relative fluorescent units of the wells without test substance, but with cells RFU control without cells=relative fluorescent units of the wells without test substance and without cells The IC50 is calculated from the adipogenesis inhibition [%] in a series of dilutions of tested samples. This is the concentration at which the adipogenesis is 50% inhibited.

pancreatic lipase (PL) = target: T1, pancreatic lipase (PL) (Sus scrofa, UniProt P00591); assay: Inhibition of PL, MUF oleate hydrolysis; assay type: biochemical; settings: mean values of at least 2 independent tests
T1 construct: purchased Sigma-Aldrich
T1 sequence (P00591 1-450): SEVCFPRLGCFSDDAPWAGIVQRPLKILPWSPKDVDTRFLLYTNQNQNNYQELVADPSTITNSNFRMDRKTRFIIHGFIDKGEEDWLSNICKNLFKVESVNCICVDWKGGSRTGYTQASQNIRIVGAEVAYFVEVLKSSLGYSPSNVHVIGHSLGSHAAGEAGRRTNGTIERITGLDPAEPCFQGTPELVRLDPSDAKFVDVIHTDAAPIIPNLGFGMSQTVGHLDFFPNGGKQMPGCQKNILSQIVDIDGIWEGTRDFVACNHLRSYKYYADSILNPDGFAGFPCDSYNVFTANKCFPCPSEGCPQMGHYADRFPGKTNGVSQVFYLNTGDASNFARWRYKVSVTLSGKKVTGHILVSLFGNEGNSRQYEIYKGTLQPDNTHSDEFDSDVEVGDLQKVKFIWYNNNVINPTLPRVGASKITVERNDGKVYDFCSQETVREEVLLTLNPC
Source text: Lipogenesis is perceived as the storage of triglycerides in adipocytes. The inhibition of this storage can take place by means of the inhibition of the activity of extracellular lipoprotein lipase (LPL) in that the hydrolysis of extracellular triglycerides and therefore the absorption of free fatty acids by adipocytes are reduced. As a preliminary test, the inhibition of pancreatic lipase (PL) is investigated.
PL (Sigma-Aldrich), in the presence of test substances in different use concentrations has methylumbelliferyl oleate (MUF oleate) added as a substrate. Fluorescent methylumelliferon (MUF), is produced by hydrolysis of the MUF oleate by PL and is quantified. The inhibition of the hydrolysis of the MUF oleate is a measure of the inhibition of activity of the PL.
[formula] wherein MUF test substance=MUF concentration of the wells with test substance and with PL MUF control=MUF concentration of the wells without test substance, but with PL MUF control without PL=MUF concentration of the wells without test substance and without PL
The IC50 is calculated from the inhibition of the PL [%] in a series of dilutions of tested samples. This is the concentration, at which the activity of the PL is 50% inhibited.

Row | IC50 (pancreatic lipase (PL)) [µM] | SMILES | IC50 (3T3-L1 cells) [µM]
1 | 720 | CCC(C)NC(=O)OC1CCCC(C)C1C (stereo not drawn) [BIO1845, sec-Butyl-carbamic acid 2,3-dimethyl-cyclohexyl ester] | 96
2 | 780 | CCCCNC(=O)OC1CCCCC1C(C)C (stereo not drawn) [BIO1841, Butyl-carbamic acid 2-isopropyl-cyclohexyl ester] | 59
3 | 1380 | CCCCNC(=O)OC1C(C)CCC(C)C1C (stereo not drawn) [BIO1617, Butyl-carbamic acid 2,3,6-trimethyl-cyclohexyl ester] | 79
